The nature of this series: Maximum solubility of the active agent in various excipients. In kind it is physicochemical.

Bounds are passed on as bounds.

Regarding `CCCc1cc(C(O)(CC)CC)ccc1-c1cc(OCc2ccc(CO)c(CO)c2)ccc1CC` [Active agent, {4-[6-ethyl-4′-(1-ethyl-1-hydroxypropyl)-2′-propylbiphenyl-3-yloxymethyl]-2-hydroxy-methylphenyl}methanol], the Sol max is recorded as 1.033 % w/w (in Arlamol E); 3.989 % w/w (in Cremophor RH40); above 20 % w/w (in Ethanol 95); 0.322 % w/w (in Eutanol G); 0.1654 % w/w (in IPP); 0.936 % w/w (in Labrafil M1944CS). The molecule also displayed a Sol max (in Miglyol 812) of 0.3167 % w/w; a Sol max (in PEG 400) of 6.894 % w/w; a Sol max (in Primol 352) of 0.0009 % w/w; a Sol max (in Propylene glycol) of 2.3351 % w/w; a Sol max (in Sweet almond oil) of 0.0932 % w/w; a Sol max (in Transcutol) above 20 % w/w.
